Laboratory results: patent publication US7265103B2, “Substituted amino isoxazoline derivatives and their use as anti-depressants” (Janssen Pharmaceutica NV., priority 2002, dated 2007)
Where a name gives a salt, the structure may show the parent alone.

Assays:
h5-HT transporter = biological target: T1, h5-HT transporter (Homo sapiens, UniProt P31645); assay: Radioligand binding experiment for 5-HT transporter ([3H]paroxetine); details: human platelet membranes, [3H]paroxetine 0.5 nM
T1 construct: Human platelet membranes (Oceanix Biosciences Corporation, Hanover, Md., USA) were thawed; tissue Oceanix Biosciences Corporation; host or cells: human platelet membranes
T1 sequence (P31645 whole entry): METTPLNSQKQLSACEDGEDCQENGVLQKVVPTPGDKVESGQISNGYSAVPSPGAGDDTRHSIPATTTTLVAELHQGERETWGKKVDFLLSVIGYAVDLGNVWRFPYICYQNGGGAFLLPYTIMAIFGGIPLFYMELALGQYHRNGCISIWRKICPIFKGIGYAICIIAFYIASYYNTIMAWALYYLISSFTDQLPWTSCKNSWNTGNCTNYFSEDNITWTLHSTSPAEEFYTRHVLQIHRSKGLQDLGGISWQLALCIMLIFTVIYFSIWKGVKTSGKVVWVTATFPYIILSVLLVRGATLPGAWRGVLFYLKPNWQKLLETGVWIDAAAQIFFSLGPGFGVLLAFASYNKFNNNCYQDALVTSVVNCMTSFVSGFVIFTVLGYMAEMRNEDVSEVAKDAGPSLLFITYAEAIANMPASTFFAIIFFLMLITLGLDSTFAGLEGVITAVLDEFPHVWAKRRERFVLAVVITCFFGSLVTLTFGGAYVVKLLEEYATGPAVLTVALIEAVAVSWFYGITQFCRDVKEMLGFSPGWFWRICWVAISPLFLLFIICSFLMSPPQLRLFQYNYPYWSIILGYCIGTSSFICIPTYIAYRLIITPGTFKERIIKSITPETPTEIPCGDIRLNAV
Experimental: (§1) The interaction of the compounds of Formula (I) with hα2-receptors and h5-HT-transporters was assessed in in vitro radioligand binding experiments. In general, a low concentration of a radioligand with a high binding affinity for a particular receptor or transporter is incubated with a sample of a tissue preparation enriched in a particular receptor or transporter or with a preparation of cells expressing cloned human receptors in a buffered medium. During the incubation, the radioligand binds to the receptor or transporter. When equilibrium of binding is reached, the receptor bound radioactivity is separated from the non-bound radioactivity, and the receptor- or transporter-bound activity is counted. The interaction of the test compounds with the receptor is assessed in competition binding experiments. Various concentrations of the test compound are added to the incubation mixture containing the receptor- or transporter preparation and the radioligand. The test compound in proportion to its binding affinity and its concentration inhibits binding of the radioligand. The radioligand used for hα2A, hα2B and hα2C receptor binding was [^3H]-raulwolscine and for the h5-HT transporter was [^3H]paroxetine.
Human platelet membranes (Oceanix Biosciences Corporation, Hanover, Md., USA) were thawed, diluted in buffer (Tris-HCl 50 mM, 120 mM NaCl and 5 mM KCl) and quickly (max 3 s) homogenised with an Ultraturrax homogenizer. In a total volume of 250 μL, 50-100 μg protein was incubated with [^3H]paroxetine (NET-869) (New England Nuclear, USA) (0.5 nM final concentration) with or without competitor for 60 min at 25° C. Incubation was stopped by rapid filtration of the incubation mixture over GF/B filters, pre-wetted with 0.1% polyethyleneamine, using a Filtermatel 96 harvester (Packard, Meriden, Conn.). Filters were rinsed extensively with ice-cold buffer and radioactivity on the filters was counted in a Topcount liquid scintillation counter (Packard, Meriden, Conn.). Data were expressed as cpm. Imipramine (at 1 μM final concentration) was used to determine the non-specific binding.
(§2) Data from assays in the presence of compound were calculated as a percentage of total binding measured in the absence of test compound. Inhibition curves, plotting percent of total binding versus the log value of the concentration of the test compound, were automatically generated, and sigmoidal inhibition curves were fitted using non-linear regression. The pIC50 values of test compounds were derived from individual curves.

hα2C receptor = biological target: T2, hα2C receptor (Homo sapiens, UniProt P18825); assay: Radioligand binding experiment for α2C-adrenergic receptor ([3H]-raulwolscine); details: CHO cell membranes with human α2C receptor, [3H]raulwolscine 1 nM; read-out: pIC50 α2C (converted)
T2 construct: expressed in transfected cells; host or cells: CHO cells
T2 sequence (P18825 1-462): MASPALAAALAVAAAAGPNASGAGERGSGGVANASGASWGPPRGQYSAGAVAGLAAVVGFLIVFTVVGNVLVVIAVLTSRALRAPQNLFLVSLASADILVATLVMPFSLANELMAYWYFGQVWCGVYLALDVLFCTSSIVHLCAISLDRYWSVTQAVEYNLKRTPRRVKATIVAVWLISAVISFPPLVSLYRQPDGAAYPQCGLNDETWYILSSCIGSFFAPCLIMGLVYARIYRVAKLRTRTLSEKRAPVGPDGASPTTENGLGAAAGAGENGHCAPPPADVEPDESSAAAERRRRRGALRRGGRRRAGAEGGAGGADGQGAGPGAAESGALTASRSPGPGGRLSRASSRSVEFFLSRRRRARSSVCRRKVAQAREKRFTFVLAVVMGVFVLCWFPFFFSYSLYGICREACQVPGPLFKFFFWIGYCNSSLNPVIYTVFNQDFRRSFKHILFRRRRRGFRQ
Experimental: as §1
(§3) CHO cells, stabile transfected with human adrenergic-α2A-, -α2B or α2C receptor cDNA, were cultured in Dulbecco's Modified Eagle's Medium (DMEM)/Nutrient mixture Ham's F12 (ratio 1:1)(Gibco, Gent-Belgium) supplemented with 10% heat inactivated fetal calf serum (Life Technologies, Merelbeke-Belgium) and antibiotics (100 IU/ml penicillin G, 100 μg/ml streptomycin sulphate, 110 μg/ml pyruvic acid and 100 μg/ml L-glutamine). One day before collection, cells were induced with 5 mM sodiumbutyrate. Upon 80-90% of confluence, cells were scraped in phosphate buffered saline without Ca^2+ and Mg^2+ and collected by centrifugation at 1500×g for 10 min. The cells were homogenised in Tris-HCl 50 mM using an Ultraturrax homogenizer and centrifuged for 10 min at 23,500×g. The pellet was washed once by resuspension and rehomogenization and the final pellet was resuspended in Tris-HCl, divided in 1 ml aliquots and stored at −70° C.
(§4) Membranes were thawed and re-homogenized in incubation buffer (glycylglycine 25 mM, pH 8.0). In a total volume of 500 μl, 2-10 μg protein was incubated with [^3H]raulwolscine (NET-722) (New England Nuclear, USA) (1 nM final concentration) with or without competitor for 60 min at 25° C. followed by rapid filtration over GF/B filter using a Filtermatel 96 harvester (Packard, Meriden, Conn.). Filters were rinsed extensively with ice-cold rinsing buffer (Tris-HCl 50 mM pH 7.4). Filter-bound radioactivity was determined by scintillation counting in a Topcount (Packard, Meriden, Conn.) and results were expressed as counts per minute (cpm). Non-specific binding was determined in the presence of 1 μM oxymetazoline for hα2A- and hα2B receptors and 1 μM spiroxatrine for hα2C receptors.
as §2

hα2A receptor = biological target: T3, hα2A receptor (Homo sapiens, UniProt P08913); assay: Radioligand binding experiment for α2A-adrenergic receptor ([3H]-raulwolscine); details: CHO cell membranes with human α2A receptor, [3H]raulwolscine 1 nM; read-out: pIC50 α2A (converted)
T3 construct: expressed in transfected cells; host or cells: CHO cells
T3 sequence (P08913 1-465): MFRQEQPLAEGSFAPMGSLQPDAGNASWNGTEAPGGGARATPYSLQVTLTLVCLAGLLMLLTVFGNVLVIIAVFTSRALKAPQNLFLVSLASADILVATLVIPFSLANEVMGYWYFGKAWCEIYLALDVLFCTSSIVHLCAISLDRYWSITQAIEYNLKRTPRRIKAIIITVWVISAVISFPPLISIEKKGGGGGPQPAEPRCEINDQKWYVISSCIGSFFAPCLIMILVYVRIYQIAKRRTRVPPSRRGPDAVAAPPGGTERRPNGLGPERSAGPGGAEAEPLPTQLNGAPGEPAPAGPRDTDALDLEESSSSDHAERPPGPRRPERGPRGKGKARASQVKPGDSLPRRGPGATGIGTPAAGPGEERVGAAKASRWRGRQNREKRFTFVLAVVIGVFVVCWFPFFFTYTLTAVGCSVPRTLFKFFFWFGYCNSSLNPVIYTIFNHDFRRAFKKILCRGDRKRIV
Experimental: as §1, §3, §4, §2

Compound | melting point [°C] | IC50 (h5-HT transporter) [nM] | IC50 (hα2C receptor) [nM] | IC50 (hα2A receptor) [nM]
CCCC(C)C(=O)Nc1cc2c(cc1OC)C1=NOC(CN3CCN(CC(C)=Cc4ccc(F)cc4)CC3)C1CO2 (stereo not shown) [Compound 113] | – | 63.1 | 39.8 | 79.4
CCC(C)C(=O)Nc1cc2c(cc1OC)C1=NOC(CN3CCN(CC(C)=Cc4ccc(F)cc4)CC3)C1CO2 (stereo not shown) [Compound 114] | – | 31.6 | 20 | 25.1
COc1cc2c(cc1NC(=O)C1CCC1)OCC1C2=NOC1CN1CCN(CC(C)=Cc2ccc(F)cc2)CC1 (stereo not shown) [Compound 115] | – | 25.1 | 39.8 | 39.8
COc1cc2c(cc1NCC(C)C)OCC1C2=NOC1CN1CCN(CC(C)=Cc2ccc(F)cc2)CC1 (stereo not shown) [Compound 116] | – | 79.4 | 158 | 200
COc1cc2c(cc1NC(=O)Nc1ccccc1)OCC1C2=NOC1CN1CCN(CC(C)=Cc2ccc(F)cc2)CC1 (stereo not shown) [Compound 124] | – | 50.1 | 158 | 316
CC(=Cc1ccc(F)cc1)CN1CCN(CC2ON=C3c4ccc(N5CCCCCC5)cc4OCC32)CC1 (stereo not shown) [Compound 125] | – | 158 | 158 | 200
COc1cc2c(cc1NCC1CC1C)OCC1C2=NOC1CN1CCN(CC(C)=Cc2ccc(F)cc2)CC1 (stereo not shown) [Compound 126] | – | 126 | 126 | 63.1
COc1cc2c(cc1NCC1(C)CC1)OCC1C2=NOC1CN1CCN(CC(C)=Cc2ccc(F)cc2)CC1 (stereo not shown) [Compound 128] | – | 158 | 200 | 200
CC(=Cc1ccc(F)cc1)CN1CCN(CC2ON=C3c4ccc(NCC5CC5)cc4OCC32)CC1 (stereo not shown) [Compound 130] | – | 126 | 25.1 | 126
CC(=Cc1ccc(F)cc1)CN1CCN(CC2ON=C3c4ccc(N5CC=CCC5)cc4OCC32)CC1 (stereo not shown) [Compound 135] | – | 79.4 | 25.1 | 39.8
CC(=Cc1ccc(F)cc1)CN1CCN(CC2ON=C3c4ccc(N5CCNCC5)cc4OCC32)CC1 (stereo not shown) [Compound 136] | – | 7.94 | 5.01 | 39.8
CC(=Cc1ccc(F)cc1)CN1CCN(CC2ON=C3c4ccc(NC(N)=O)cc4OCC32)CC1 (stereo not shown) [Compound 137] | – | 20 | 10 | 6.31
CC(=Cc1ccc(F)cc1)CN1CCN(CC2ON=C3c4ccc(NC(=O)C5CC5)cc4OCC32)CC1 (stereo not shown) [Compound 138] | – | 50.1 | 31.6 | 31.6
CC(=Cc1ccc(F)cc1)CN1CCN(CC2ON=C3c4ccc(N5CCC(C)C5=O)cc4OCC32)CC1 (stereo not shown) [Compound 139] | – | 126 | 7.94 | 15.8

Second part, the compound after the results:

melting point [°C] | IC50 (h5-HT transporter) [nM] | IC50 (hα2C receptor) [nM] | IC50 (hα2A receptor) [nM] | Compound
218 to 226 | – | – | – | CC(=Cc1ccc(F)cc1)CN1CCN(CC2ON=C3c4ccc(N(C)CCN)cc4OCC32)CC1 (stereo not shown) (as salt: HCl) [Compound 19]
– | 5.01 | 5.01 | 39.8 | CC(=Cc1ccc(F)cc1)CN1CCN(CC2ON=C3c4ccc(N(C)CCNC(C)C(C)C)cc4OCC32)CC1 (stereo not shown) [Compound 110]
– | 12.6 | 6.31 | 25.1 | CC(=Cc1ccc(F)cc1)CN1CCN(CC2ON=C3c4ccc(N(C)CCNC5CCC5)cc4OCC32)CC1 (stereo not shown) [Compound 111]
– | 100 | 126 | 251 | CC(=Cc1ccc(F)cc1)CN1CCN(CC2ON=C3c4ccc(N(C)CCOC(=O)CC(C)(C)C)cc4OCC32)CC1 (stereo not shown) [Compound 117]
– | 3.16 | 3.16 | 12.6 | CC(=Cc1ccc(F)cc1)CN1CCN(CC2ON=C3c4ccc(N(C)CCNCC5CC5)cc4OCC32)CC1 (stereo not shown) [Compound 118]
– | 3.16 | 3.16 | 10 | CC(=Cc1ccc(F)cc1)CN1CCN(CC2ON=C3c4ccc(N(C)CCNCC(C)O)cc4OCC32)CC1 (stereo not shown) [Compound 119]
– | 2.51 | 6.31 | 39.8 | CCC(C)(C)NCCN(C)c1ccc2c(c1)OCC1C2=NOC1CN1CCN(CC(C)=Cc2ccc(F)cc2)CC1 (stereo not shown) [Compound 120]
– | 158 | 100 | 501 | C=CCN(C)CCN(C)c1ccc2c(c1)OCC1C2=NOC1CN1CCN(CC(C)=Cc2ccc(F)cc2)CC1 (stereo not shown) [Compound 121]
– | 6.31 | 7.94 | 39.8 | CC(=Cc1ccc(F)cc1)CN1CCN(CC2ON=C3c4ccc(N(C)CCN(C)C(C)(C)C)cc4OCC32)CC1 (stereo not shown) [Compound 122]
– | 7.94 | 3.16 | 10 | CC(=Cc1ccc(F)cc1)CN1CCN(CC2ON=C3c4ccc(N(C)CCN5CCC5)cc4OCC32)CC1 (stereo not shown) [Compound 123]
– | 200 | 158 | 316 | CCC(C)NC(=O)OCCN(C)c1ccc2c(c1)OCC1C2=NOC1CN1CCN(CC(C)=Cc2ccc(F)cc2)CC1 (stereo not shown) [Compound 127]
– | 158 | 31.6 | 63.1 | CC(=Cc1ccc(F)cc1)CN1CCN(CC2ON=C3c4ccc(NC(C)C)cc4OCC32)CC1 (stereo not shown) [Compound 129]
– | 63.1 | 50.1 | 158 | CCC(C)Nc1ccc2c(c1)OCC1C2=NOC1CN1CCN(CC(C)=Cc2ccc(F)cc2)CC1 (stereo not shown) [Compound 131]
– | 63.1 | 31.6 | 25.1 | CC(=Cc1ccc(F)cc1)CN1CCN(CC2ON=C3c4ccc(NCC(C)O)cc4OCC32)CC1 (stereo not shown) [Compound 132]
– | 126 | 126 | 126 | CCCCCNc1ccc2c(c1)OCC1C2=NOC1CN1CCN(CC(C)=Cc2ccc(F)cc2)CC1 (stereo not shown) [Compound 133]
– | 126 | 126 | 63.1 | CC(=Cc1ccc(F)cc1)CN1CCN(CC2ON=C3c4ccc(NC(C)CO)cc4OCC32)CC1 (stereo not shown) [Compound 134]
